Assay results as given in ChEMBL document CHEMBL5360655, “Design, Synthesis, and Biological Evaluation of Novel P2X7 Receptor Antagonists for the Treatment of Septic Acute Kidney Injury” (J Med Chem, 2023).
The source made the active and inactive calls. The calls are words filed in the database; no cut-off is given here.

Tests used:
Mus musculus [1] = assay: (§1) Reno-protective activity against LPS-induced acute kidney injury C57BL/6J mouse model assessed as decrease in tubular injury by measuring epithelial flattening and tubular dilation at 5 to 20 mg/kg, ip administered twice at 30 mins prior to LPS challenge and 8 hrs post-LPS challenge and measured at 16 hrs post-LPS challenge by Hematoxylin-Eosin staining based analysis; assay type: functional, organism-based; settings: dose 5-20 mg/kg, time 16.5 hrs
Mus musculus [2] = assay: Reno-protective activity against LPS-induced acute kidney injury C57BL/6J mouse model assessed as decrease in serum […] level at 10 mg/kg, ip administered twice at 30 mins prior to LPS challenge and 8 hrs post-LPS challenge and measured at 16 hrs post-LPS challenge; assay type: functional, organism-based; settings: time 16.5 hrs
[3] = Toxicity in C57BL/6J mouse assessed as pathological changes in heart at 20 mg/kg, ip administered twice at 0 hrs and 8 hrs and measured after 16 hrs by Hematoxylin-Eosin staining based analysis; assay type: organism-based; settings: in vivo
Cytochrome P450 2D6 = Cytochrome P450 2D6 (Homo sapiens, UniProt P10635); assay: Inhibition of CYP2D6 in human liver microsomes using dextromethorphan as substrate upto 100 uM incubated for 10 mins in presence of NADPH by LC-MS/MS analysis; assay type: ADME, Microsome
Chain of Cytochrome P450 2D6 (P10635 whole entry): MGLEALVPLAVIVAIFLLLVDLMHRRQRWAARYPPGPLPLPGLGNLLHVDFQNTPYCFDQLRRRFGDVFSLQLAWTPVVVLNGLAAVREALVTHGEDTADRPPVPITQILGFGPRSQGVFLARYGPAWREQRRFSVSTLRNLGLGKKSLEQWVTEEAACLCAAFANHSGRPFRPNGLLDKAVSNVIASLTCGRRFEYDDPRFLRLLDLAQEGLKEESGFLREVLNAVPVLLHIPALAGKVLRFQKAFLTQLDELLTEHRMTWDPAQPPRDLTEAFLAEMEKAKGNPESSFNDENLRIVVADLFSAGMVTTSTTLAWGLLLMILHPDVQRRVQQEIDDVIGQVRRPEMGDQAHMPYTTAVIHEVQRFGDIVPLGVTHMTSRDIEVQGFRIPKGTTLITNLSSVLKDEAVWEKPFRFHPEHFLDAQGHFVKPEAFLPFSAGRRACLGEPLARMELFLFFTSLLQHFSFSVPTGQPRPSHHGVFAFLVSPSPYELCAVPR

Mus musculus [4] = assay: (§2) Reno-protective activity against CLP-induced acute kidney injury C57BL/6J mouse model assessed as decrease in IL-18 mRNA expression in kidney at 20 mg/kg, ip administered twice at 30 mins prior to CLP operation and 8 hrs post-CLP operation and measured at 16 hrs post-CLP operation by RT-qPCR analysis; assay type: functional, organism-based; settings: time 16.5 hrs
[5] = Cmax in BALB/c mouse at 10 mg/kg, ip measured for 24 hrs by LC-MS/MS analysis; assay type: ADME, organism-based; set-up: dose 10 mg/kg, time 24 hrs, route ip; settings: in vivo
THP-1 [6] = assay: Inhibition of ATP-induced apoptosis in human THP-1 cells at […] pretreated with compound for 3 hrs in presence of LPS followed by incubation with ATP for 1 hr by PI/Hoechst staining based fluorescence microscopic analysis; assay type: functional, cell-based; settings: dose 2.5 µM, time 4.0 hrs
[7] = Clearance in BALB/c mouse at 10 mg/kg, po measured for 24 hrs by LC-MS/MS analysis; assay type: ADME, organism-based; settings: in vivo
[8] = Half life in BALB/c mouse at 10 mg/kg, po measured for 24 hrs by LC-MS/MS analysis; assay type: ADME, organism-based; settings: in vivo
[9] = Half life in BALB/c mouse at 10 mg/kg, iv measured for 24 hrs by LC-MS/MS analysis; assay type: ADME, organism-based; settings: in vivo
THP-1 [10] = assay: Cytotoxicity against human THP-1 cells assessed as effect on cell viability at 1 to 4 uM incubated for 2 hrs by CCK8 assay; assay type: toxicity, cell-based; settings: thp-1, 2 h, dose 1-4 µM
Mus musculus [11] = assay: Reno-protective activity against ip dosed LPS-induced acute kidney injury C57BL/6J mouse model assessed as decrease in serum […] level administered twice at 30 mins prior to LPS challenge and 8 hrs post-LPS challenge and measured at 16 hrs post-LPS challenge; assay type: functional; settings: time 16.5 hrs, read-out: MED
Mus musculus [12] = assay: as §2, with “Tnfa-gene” for “IL-18 mRNA”, “RNA sequencing” for “RT-qPCR”; assay type: functional, organism-based; settings: time 16.5 hrs
[13] = Clearance in BALB/c mouse at 10 mg/kg, ip measured for 24 hrs by LC-MS/MS analysis; assay type: ADME, organism-based; settings: in vivo
THP-1 [14] = assay: Inhibition of ATP-induced mitochondrial damage in human THP-1 cells at […] pretreated with compound for 3 hrs in presence of LPS followed by incubation with ATP for 1 hr by MitoTracker dye based fluorescence analysis; assay type: functional, cell-based; settings: dose 2.5 µM, time 4.0 hrs
[15] = molecular target: T1, P2X purinoceptor 7 (Homo sapiens) (UniProt Q99572); assay: Antagonist activity at human P2X7 receptor expressed in HEK293 cells assessed as inhibition of ATP-induced receptor pore formation at 1 uM by propidium iodide dye uptake based fluorescence analysis; assay type: cell-based; settings: filed as antagonist
T1 sequence (whole entry): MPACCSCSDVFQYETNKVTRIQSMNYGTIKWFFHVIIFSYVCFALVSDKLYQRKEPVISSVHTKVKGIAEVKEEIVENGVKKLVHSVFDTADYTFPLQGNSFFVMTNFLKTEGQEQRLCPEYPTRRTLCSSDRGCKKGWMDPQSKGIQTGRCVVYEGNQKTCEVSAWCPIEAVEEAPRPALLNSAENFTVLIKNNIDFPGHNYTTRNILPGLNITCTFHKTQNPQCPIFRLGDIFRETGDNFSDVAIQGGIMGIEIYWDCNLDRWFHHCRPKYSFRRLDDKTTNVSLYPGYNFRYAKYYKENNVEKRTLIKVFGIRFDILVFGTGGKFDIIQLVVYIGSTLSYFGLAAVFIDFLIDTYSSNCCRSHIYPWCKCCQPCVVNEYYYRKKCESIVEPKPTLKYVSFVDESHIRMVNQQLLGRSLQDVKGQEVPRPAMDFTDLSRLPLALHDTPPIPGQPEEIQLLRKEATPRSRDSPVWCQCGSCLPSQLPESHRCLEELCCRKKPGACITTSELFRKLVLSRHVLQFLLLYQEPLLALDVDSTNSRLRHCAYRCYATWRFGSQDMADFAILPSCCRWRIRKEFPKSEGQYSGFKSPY

Mus musculus [16] = assay: (§3) Reno-protective activity against LPS-induced acute kidney injury C57BL/6J mouse model assessed as decrease in NGAL mRNA expression in kidney at 5 to 20 mg/kg, ip administered twice at 30 mins prior to LPS challenge and 8 hrs post-LPS challenge and measured at 16 hrs post-LPS challenge by RT-qPCR analysis; assay type: functional, organism-based; settings: dose 5-20 mg/kg, time 16.5 hrs
[17] = Intrinsic clearance in human liver microsomes; assay type: ADME, Microsome; settings: read-out: CLH
Cytochrome P450 2C9 = Cytochrome P450 2C9 (Homo sapiens, UniProt P11712); assay: Inhibition of CYP2C9 in human liver microsomes using tolbutamide as substrate upto 100 uM incubated for 10 mins in presence of NADPH by LC-MS/MS analysis; assay type: ADME, Microsome
Chain of Cytochrome P450 2C9 (P11712 whole entry): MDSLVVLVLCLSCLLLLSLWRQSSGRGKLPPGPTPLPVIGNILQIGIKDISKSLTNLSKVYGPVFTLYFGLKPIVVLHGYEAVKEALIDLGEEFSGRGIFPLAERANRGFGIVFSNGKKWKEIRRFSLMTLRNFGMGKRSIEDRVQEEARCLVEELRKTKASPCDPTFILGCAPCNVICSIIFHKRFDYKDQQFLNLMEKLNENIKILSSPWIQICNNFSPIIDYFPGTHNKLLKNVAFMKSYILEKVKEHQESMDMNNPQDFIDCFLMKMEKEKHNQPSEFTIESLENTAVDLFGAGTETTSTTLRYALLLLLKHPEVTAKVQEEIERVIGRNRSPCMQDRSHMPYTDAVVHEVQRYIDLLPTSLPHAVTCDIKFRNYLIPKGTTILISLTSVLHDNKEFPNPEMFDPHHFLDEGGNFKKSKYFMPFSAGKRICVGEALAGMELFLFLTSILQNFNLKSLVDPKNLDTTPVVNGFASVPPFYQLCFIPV

THP-1 [18] = assay: Inhibition of ATP-induced apoptosis in human THP-1 cells at 0.5 to […] pretreated with LPS for 3 hrs followed by incubation with compound for 40 mins followed by treatment with ATP for 6 hrs by CCK8 assay; assay type: functional, cell-based; settings: dose 0.5-2.5 µM, time 400.0 min
[19] = Half life in mouse liver microsomes; assay type: ADME, Microsome
Mus musculus [20] = assay: as §3, with “KIM1” for “NGAL”; assay type: functional, organism-based; settings: dose 5-20 mg/kg, time 16.5 hrs
[21] = Half life in human liver microsomes; assay type: ADME, Microsome
Mus musculus [22] = assay: Reno-protective activity against CLP-induced acute kidney injury C57BL/6J mouse model assessed as decrease in BUN level at 20 mg/kg, ip administered twice at 30 mins prior to CLP operation and 8 hrs post-CLP operation and measured at 16 hrs post-CLP operation; assay type: functional, organism-based; settings: time 16.5 hrs
Mus musculus [23] = assay: as §1, with “improvement of infiltration of inflammatory cells” for “epithelial flattening and tubular dilation”; assay type: functional, organism-based; settings: dose 5-20 mg/kg, time 16.5 hrs
Mus musculus [24] = assay: Reno-protective activity against CLP-induced acute kidney injury C57BL/6J mouse model assessed as decrease in NGAL mRNA expression in kidney at 20 mg/kg, ip administered twice at 30 mins prior to CLP operation and 8 hrs post-CLP operation and measured at 16 hrs post-CLP operation by RT-qPCR analysis; assay type: functional, organism-based; settings: time 16.5 hrs
[25] = Intrinsic clearance in mouse liver microsomes; assay type: ADME, Microsome; settings: read-out: CLH
[26] = Toxicity in C57BL/6J mouse assessed as pathological changes in lungs at 20 mg/kg, ip administered twice at 0 hrs and 8 hrs and measured after 16 hrs by Hematoxylin-Eosin staining based analysis; assay type: organism-based; settings: in vivo

CS(=O)(=O)c1ccc(-c2nc(C(=O)NCc3cn(-c4cc(Br)ccn4)nn3)cs2)cc1
Activity (Mus musculus [1]): Dose-Dependent Effect | Activity (Mus musculus [2]): Active | Activity [3]: Non-Toxic | inhibition (INH) (Cytochrome P450 2D6): Not Active | Activity (Mus musculus [4]): Active | Cmax [5]: 1070 ng/mL | inhibition (THP-1 [6]): Active | CL/F [7]: 25.8 mL/min/kg | half-life [8]: 1.92 h | half-life [9]: 5.31 h | Activity (THP-1 [10]): Non-Toxic | minimal effective dose (Mus musculus [11]): 5 mg/kg | Activity (Mus musculus [12]): Active | CL/F [13]: 12.7 mL/min/kg | inhibition (THP-1 [14]): Active | inhibition [15]: 112% | Activity (Mus musculus [16]): Dose-Dependent Effect | CLint scaled [17]: 16.6 mL/min/kg | inhibition (INH) (Cytochrome P450 2C9): Not Active | inhibition (THP-1 [18]): Active | half-life [19]: > 2 h | Activity (Mus musculus [20]): Dose-Dependent Effect | half-life [21]: 1.75 h | Activity (Mus musculus [22]): Active | Activity (Mus musculus [23]): Dose-Dependent Effect | Activity (Mus musculus [24]): Active | CLint scaled [25]: < 12 mL/min/kg | Activity [26]: Non-Toxic
